Measurements reported in ChEMBL document CHEMBL1201862, “PubChem BioAssay data set” (2004).
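1) Cells in 96-well plates. 2) Compound, 48 h, 5 concentrations. 3) Linear interpolation between surrounding doses. 4) Unreached endpoint = highest concentration. Abbreviation: GI50, concentration required for 50% inhibition of growth.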 The source made the active and inactive calls. Rule as the data show it: active = GI50 up to about 1.1 µM and inactive = higher.

Tests used:
Assay in all cases: NCI anticancer screen, dose series, 48 h
IGROV-1 = test system: IGROV-1
CAKI-1 = test system: CAKI-1
PC-3 = test system: PC-3
NCI/ADR-RES = test system: NCI/ADR-RES
NCI-H226 = test system: NCI-H226
NCI-H522 = test system: NCI-H522
A549 = test system: A549
CCRF-CEM = test system: CCRF-CEM
TK-10 = test system: TK-10
EKVX = test system: EKVX
HL-60 = test system: HL-60
SR = test system: SR
T47D = test system: T47D
MDA-N = test system: MDA-N
DU-145 = test system: DU-145
LOX IMVI = test system: LOX IMVI
786-0 = test system: 786-0
BT-549 = test system: BT-549
OVCAR-4 = test system: OVCAR-4
NCI-H23 = test system: NCI-H23

Measured: GI50

CC1(C)C(c2ccccc2)=[N+]([O-])C(C)(C)N1O
inactive: IGROV-1 > 10 µM | CAKI-1 > 10 µM | PC-3 > 10 µM | NCI/ADR-RES > 10 µM | NCI-H226 > 10 µM | NCI-H522 > 10 µM | A549 > 10 µM | CCRF-CEM > 10 µM | TK-10 > 10 µM | EKVX > 10 µM | HL-60 > 10 µM | SR > 10 µM | T47D > 10 µM | MDA-N > 10 µM | DU-145 > 10 µM | LOX IMVI > 10 µM | 786-0 > 10 µM | BT-549 > 10 µM | OVCAR-4 > 10 µM | NCI-H23 > 10 µM

COc1c(C)c(OCC=C(C)C)cc(CO)c1CO
inactive: IGROV-1 38.2 µM | CAKI-1 46.8 µM | PC-3 36 µM | NCI/ADR-RES 26.3 µM | NCI-H226 87.3 µM | NCI-H522 7.46 µM | A549 47.5 µM | CCRF-CEM 44.9 µM | TK-10 89.5 µM | EKVX 77.8 µM | HL-60 47.5 µM | SR 18.2 µM | T47D 38.1 µM | MDA-N 71.3 µM | DU-145 92 µM | LOX IMVI 28.9 µM | 786-0 7.23 µM | BT-549 42.9 µM | OVCAR-4 35.6 µM | NCI-H23 38.7 µM

Cn1c(=O)c2c([nH]/c(=N/N=C/c3ccccc3C(=O)O)n2C)n(C)c1=O
inactive: IGROV-1 > 100 µM | CAKI-1 > 100 µM | PC-3 > 100 µM | NCI/ADR-RES > 100 µM | NCI-H226 > 100 µM | NCI-H522 > 100 µM | A549 > 100 µM | CCRF-CEM > 100 µM | TK-10 > 100 µM | EKVX > 100 µM | HL-60 > 100 µM | SR > 100 µM | T47D > 100 µM | MDA-N > 100 µM | DU-145 > 100 µM | LOX IMVI > 100 µM | 786-0 > 100 µM | BT-549 > 100 µM | OVCAR-4 > 100 µM | NCI-H23 > 100 µM

COc1ccc2c(c1)CC1=C(O2)c2ccc(OC)cc2OC1
inactive: IGROV-1 28.5 µM | CAKI-1 18.7 µM | PC-3 23.2 µM | NCI/ADR-RES 34 µM | NCI-H226 18.5 µM | NCI-H522 17 µM | A549 74.6 µM | CCRF-CEM 31 µM | TK-10 22.6 µM | EKVX 15.2 µM | HL-60 > 100 µM | SR 36.8 µM | T47D 13.9 µM | MDA-N 17.5 µM | DU-145 44.1 µM | LOX IMVI 13.6 µM | 786-0 21.3 µM | BT-549 21.5 µM | OVCAR-4 22.5 µM | NCI-H23 45.7 µM

COc1ccc(N(C(=O)Nc2ccc(Cl)c(Cl)c2)c2ccccc2)cc1
inactive: IGROV-1 > 10 µM | CAKI-1 > 10 µM | PC-3 > 10 µM | NCI/ADR-RES > 10 µM | NCI-H226 > 10 µM | NCI-H522 > 10 µM | A549 > 10 µM | CCRF-CEM > 10 µM | TK-10 > 10 µM | EKVX > 10 µM | HL-60 > 10 µM | SR > 10 µM | T47D > 10 µM | MDA-N > 10 µM | DU-145 > 10 µM | LOX IMVI > 10 µM | 786-0 > 10 µM | BT-549 > 10 µM | OVCAR-4 > 10 µM | NCI-H23 > 10 µM
